These compounds were tested against T1, GST-PLK1 (Homo sapiens, UniProt P53350) (assay: Biochemical Characterization Assay: GST-PLK1 kinase HTRF assay with GST-p53 substrate). Conditions: full-length GST-PLK1, GST-p53 and ATP, 37° C. for 35 minutes, HTRF signal.
T1 construct: Full-length, active GST-PLK1 is purified from Sf9 insect cells; made in house; host or cells: Sf9 insect cells
Protocol: Biochemical Characterization Assay
Full-length, active GST-PLK1 is purified from Sf9 insect cells, and full-length GST-p53 is purified from E. coli. Anti-phospho p53 antibody is from Cell Signaling Technology. Europium-conjugated anti-rabbit antibody is from PerkinElmer Life and Analytical Sciences. APC-conjugated anti-GST antibody is from Prozyme.
To assay compounds of the invention, two microliters of test compound (0.6 nM-4 mM) in DMSO or plain DMSO for control wells, 38 microliters of 20 mM HEPES pH 7, 50 mM NaCl, 10 mM MgCl2, 0.5 mM TCEP, 0.1 mM sodium orthovanadate, 0.1 mg/mL BSA, and 0.05% Triton X-100 (Kinase Assay Buffer) are added. […] Six microliters of GST-PLK1 (3 ug/mL) in Kinase Assay Buffer are then added and the solution incubated at 37° C. for 35 minutes. Six microliters of solution containing 43 mM EDTA to stop the reaction and a 1:600 dilution of anti-phospho-p53 antibody in 20 mM HEPES pH 7, 50 mM NaCl, and 0.5 mg/mL BSA (Antibody Binding Buffer) are added and the solution incubated at 37° C. for 30 minutes. […] The HTRF signal is read on an Envision reader from PerkinElmer Life and Analytical Sciences.

T1 sequence (P53350 whole entry): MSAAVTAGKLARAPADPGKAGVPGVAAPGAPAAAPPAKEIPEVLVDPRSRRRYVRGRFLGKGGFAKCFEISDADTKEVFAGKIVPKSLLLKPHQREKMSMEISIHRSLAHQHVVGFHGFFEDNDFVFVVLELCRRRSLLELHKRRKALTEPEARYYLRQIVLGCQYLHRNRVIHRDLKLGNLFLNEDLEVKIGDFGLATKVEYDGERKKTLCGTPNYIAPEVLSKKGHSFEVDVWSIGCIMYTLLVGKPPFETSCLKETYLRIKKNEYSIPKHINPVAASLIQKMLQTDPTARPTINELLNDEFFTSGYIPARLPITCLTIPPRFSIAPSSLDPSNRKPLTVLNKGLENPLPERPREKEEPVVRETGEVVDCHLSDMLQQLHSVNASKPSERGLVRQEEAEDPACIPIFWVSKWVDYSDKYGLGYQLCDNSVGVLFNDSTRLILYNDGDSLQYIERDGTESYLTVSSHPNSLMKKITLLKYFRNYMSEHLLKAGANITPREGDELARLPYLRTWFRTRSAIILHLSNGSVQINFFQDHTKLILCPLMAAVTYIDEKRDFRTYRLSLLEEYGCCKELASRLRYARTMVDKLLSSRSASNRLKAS

IC50 | Structure (SMILES)
500 to 5000 nM | CC1CN(C2CCCC2)c2nc(Nc3ccc(C(=O)NCCCN(C)C)c(Cl)c3)ncc2N(C)C1=O (racemic) [I-83, (rac)-2-Chloro-4-(9-cyclopentyl-5,7-dimethyl-6-oxo-6,7,8,9-tetrahydro-5H-pyrimido[4,5-b][1,4]diazepin-2-ylamino)-N-(3-dimethylamino-propyl)-benzamide]
> 5000 nM | CC1CN(C2CCCC2)c2nc(Nc3ccc(C(=O)NC4CCCCC4)c(Cl)c3)ncc2N(C)C1=O (racemic) [I-85, (rac)-2-Chloro-N-cyclohexyl-4-(9-cyclopentyl-5,7-dimethyl-6-oxo-6,7,8,9-tetrahydro-5H-pyrimido[4,5-b][1,4]diazepin-2-ylamino)-benzamide]
< 500 nM | COc1cc(C(=O)NN)ccc1Nc1ncc2c(n1)N(C1CCCC1)CC(C)C(=O)N2C (racemic) [I-79, (rac)-4-(9-Cyclopentyl-5,7-dimethyl-6-oxo-6,7,8,9-tetrahydro-5H-pyrimido[4,5-b][1,4]diazepin-2-ylamino)-3-methoxy-benzoic acid hydrazide]
500 to 5000 nM | COc1cc(C(=O)O)ccc1Nc1ncc2c(n1)N(C1CCCC1)C(C)CC(=O)N2C (racemic) [I-3, (rac)-4-(9-Cyclopentyl-5,8-dimethyl-6-oxo-6,7,8,9-tetrahydro-5H-pyrimido[4,5-b][1,4]diazepin-2-ylamino)-3-methoxy-benzoic acid]
< 500 nM | COc1cc(C(=O)NC2CCN(C)CC2)ccc1Nc1ncc2c(n1)N(C1CCOCC1)CC(C)C(=O)N2C (racemic) [I-45, (rac)-4-[5,7-Dimethyl-6-oxo-9-(tetrahydro-pyran-4-yl)-6,7,8,9-tetrahydro-5H-pyrimido[4,5-b][1,4]diazepin-2-ylamino]-3-methoxy-N-(1-methyl-piperidin-4-yl)-benzamide]
< 500 nM | COc1cc(C(=O)NC2CCN(C)CC2)ccc1Nc1ncc2c(n1)N(C1CCC1)CCC(=O)N2C [I-24, 4-(9-Cyclobutyl-5-methyl-6-oxo-6,7,8,9-tetrahydro-5H-pyrimido[4,5-b][1,4]diazepin-2-ylamino)-3-methoxy-N-(1-methyl-piperidin-4-yl)-benzamide]
500 to 5000 nM | CCCC1CN(C2CCCC2)c2nc(Nc3ccc(C(=O)NC4CCN(C)CC4)cc3OC)ncc2N(C)C1=O (racemic) [I-17, (rac)-4-(9-Cyclopentyl-5-methyl-6-oxo-7-propyl-6,7,8,9-tetrahydro-5H-pyrimido[4,5-b][1,4]diazepin-2-ylamino)-3-methoxy-N-(1-methyl-piperidin-4-yl)-benzamide]
< 500 nM | Cc1cc(C(=O)NC2CCN(C)CC2)ccc1Nc1ncc2c(n1)N(C1CCCC1)CC1(CC1)C(=O)N2C [I-61, 4-[(9-Cyclopentyl-6,7,8,9-tetrahydro-5-methyl-6-oxospiro[5H-pyrimido[4,5-b][1,4]diazepine-7,1′-cyclopropan]-2-yl)amino]-3-methyl-N-(1-methyl-4-piperidinyl)benzamide]
500 to 5000 nM | CC1CN(C2CCCC2)c2nc(Nc3cccc(C(=O)NCCCN(C)C)c3)ncc2N(C)C1=O (racemic) [I-70, (rac)-3-(9-Cyclopentyl-5,7-dimethyl-6-oxo-6,7,8,9-tetrahydro-5H-pyrimido[4,5-b][1,4]diazepin-2-ylamino)-N-(3-dimethylamino-propyl)-benzamide]
500 to 5000 nM | CC1CN(C2CCCC2)c2nc(Nc3cccc(C(=O)NC4CCN(C)CC4)c3)ncc2N(C)C1=O (racemic) [I-69, (rac)-3-(9-Cyclopentyl-5,7-dimethyl-6-oxo-6,7,8,9-tetrahydro-5H-pyrimido[4,5-b][1,4]diazepin-2-ylamino)-N-(1-methyl-piperidin-4-yl)-benzamide]
500 to 5000 nM | COc1cc(C(=O)NC2CCN(C)CC2)ccc1Nc1ncc2c(n1)N(CCC(C)C)CC(C)C(=O)N2C (racemic) [I-27, (rac)-4-[5,7-Dimethyl-9-(3-methyl-butyl)-6-oxo-6,7,8,9-tetrahydro-5H-pyrimido[4,5-b][1,4]diazepin-2-ylamino]-3-methoxy-N-(1-methyl-piperidin-4-yl)-benzamide]
500 to 5000 nM | COc1cc(C(=O)NC2CCN(C)CC2)ccc1Nc1ncc2c(n1)N(C1CCCCC1)CC(C)C(=O)N2 (racemic) [I-18, (rac)-4-(9-Cyclohexyl-7-methyl-6-oxo-6,7,8,9-tetrahydro-5H-pyrimido[4,5-b][1,4]diazepin-2-ylamino)-3-methoxy-N-(1-methyl-piperidin-4-yl)-benzamide]
> 5000 nM | COc1cc(C(=O)N2CCOCC2)ccc1Nc1ncc2c(n1)N(C1CCCCC1)CCC(=O)N2 [I-31, 9-Cyclohexyl-2-[2-methoxy-4-(morpholine-4-carbonyl)-phenylamino]-5,7,8,9-tetrahydro-pyrimido[4,5-b][1,4]diazepin-6-one]
< 500 nM | COc1cc(C(=O)NC2CCN(C)CC2)ccc1Nc1ncc2c(n1)N(C1CCCC1)C[C@H](C)C(=O)N2C [I-2b, 7S-4-(9-cyclopentyl-5,7-dimethyl-6-oxo-6,7,8,9-tetrahydro-5H-pyrimido[4,5-b][1,4]diazepin-2-ylamino)-3-methoxy-N-(1-methyl-piperidin-4-yl)-benzamide]
> 5000 nM | CC1CN(C2CCCC2)c2nc(Nc3cccc(C(=O)Nc4ccncc4)c3)ncc2N(C)C1=O (racemic) [I-92, (rac)-3-(9-Cyclopentyl-5,7-dimethyl-6-oxo-6,7,8,9-tetrahydro-5H-pyrimido[4,5-b][1,4]diazepin-2-ylamino)-N-pyridin-4-yl-benzamide]
< 500 nM | COc1ccc(C(=O)NCCCN(C)C)cc1Nc1ncc2c(n1)N(C1CCCC1)CC(C)C(=O)N2C (racemic) [I-73, (rac)-3-(9-Cyclopentyl-5,7-dimethyl-6-oxo-6,7,8,9-tetrahydro-5H-pyrimido[4,5-b][1,4]diazepin-2-ylamino)-N-(3-dimethylamino-propyl)-4-methoxy-benzamide]
500 to 5000 nM | COc1cc(C(=O)NC2CCN(C)CC2)ccc1Nc1ncc2c(n1)N(C1CCCCC1)CCC(=O)N2 [I-29, 4-(9-Cyclohexyl-6-oxo-6,7,8,9-tetrahydro-5H-pyrimido[4,5-b][1,4]diazepin-2-ylamino)-3-methoxy-N-(1-methyl-piperidin-4-yl)-benzamide]
500 to 5000 nM | CN1CCC(NS(=O)(=O)c2ccc(Nc3ncc4c(n3)N(C3CCCC3)CC(C)(C)C(=O)N4C)cc2)CC1 [I-64, 4-(9-Cyclopentyl-5,7,7-trimethyl-6-oxo-6,7,8,9-tetrahydro-5H-pyrimido[4,5-b][1,4]diazepin-2-ylamino)-N-(1-methyl-piperidin-4-yl)-benzenesulfonamide]
500 to 5000 nM | COc1cc(C(=O)NC2CCN(C)CC2)ccc1Nc1ncc2c(n1)N(Cc1ccccc1)CC(C)C(=O)N2C (racemic) [I-42, (rac)-4-(9-Benzyl-5,7-dimethyl-6-oxo-6,7,8,9-tetrahydro-5H-pyrimido[4,5-b][1,4]diazepin-2-ylamino)-3-methoxy-N-(1-methyl-piperidin-4-yl)-benzamide]
> 5000 nM | CC1CN(C2CCCC2)c2nc(Nc3cccc(C(=O)NC4CCCCC4)c3)ncc2N(C)C1=O (racemic) [I-91, (rac)-N-Cyclohexyl-3-(9-cyclopentyl-5,7-dimethyl-6-oxo-6,7,8,9-tetrahydro-5H-pyrimido[4,5-b][1,4]diazepin-2-ylamino)-benzamide]

Reference: patent US7517873B2, “Substituted pyrimidodiazepines” (Hoffman-La Roche Inc., priority 2007, dated 2009)
